We go through 25 compounds from ChEMBL document CHEMBL4265880, “Discovery of 3-Cyano- N-(3-(1-isobutyrylpiperidin-4-yl)-1-methyl-4-(trifluoromethyl)-1 H-pyrrolo[2,3- b]pyridin-5-yl)benzamide: A Potent, Selective, and Orally Bioavailable Retinoic Acid Receptor-Related Orphan Receptor C2 Inverse Agonist” (J Med Chem, 2018).

Data set [1] is described as follows: Lipophilicity, log D of the compound at pH 7.4 by RP-HPLC analysis. It is filed as physicochemical. The settings on record: buffer.
The nature of data set [2]: Volume of distribution at steady state in Wistar Han rat at 1 mg/kg, iv or 3 mg/kg, po via gavage by LC-MS/MS analysis. It is filed as ADME, organism-based. The settings on record: in vivo, read-out: Vdss.
The nature of data set [3]: Volume of distribution at steady state in Beagle dog at 1 mg/kg, iv or 3 mg/kg, po via gavage by LC-MS/MS analysis. The following applies: in vivo, read-out: Vdss. Type of data set: ADME, organism-based, Canis lupus familiaris.
Data set [4] can be described thus: Volume of distribution at steady state in Balb/c mouse at 1 mg/kg, iv or 30 mg/kg, po via gavage by LC-MS/MS analysis. It is filed as ADME, organism-based. The following applies: in vivo, read-out: Vdss.
Data set [5] in a line: Oral bioavailability in Wistar Han rat at 3 mg/kg administered via spray-dried dispersion by LC-MS/MS analysis. Type of data set: ADME, organism-based. The settings on record: in vivo.
Data set [6] in a line: Oral bioavailability in Beagle dog at 3 mg/kg administered via spray-dried dispersion measured over 24 hrs by LC-MS/MS analysis. The following applies: in vivo. It is filed as ADME, organism-based, Canis lupus familiaris.
Data set [7] can be described thus: Oral bioavailability in Balb/c mouse at 30 mg/kg administered via spray-dried dispersion by LC-MS/MS analysis. Type of data set: ADME, organism-based. The settings on record: in vivo.
Data set [8] in a line: Oral bioavailability in Wistar Han rat at 3 mg/kg administered as crystalline solid by LC-MS/MS analysis. Type of data set: ADME, organism-based. The settings on record: in vivo.
Data set [9] is described as follows: Apparent permeability in RRCK cells. Type of data set: ADME, cell-based, Canis lupus familiaris, MDCKII-LE. The following applies: dog, MDCK.
Data set [10] can be described thus: Thermodynamic solubility of the compound at pH 6.5. It is filed as physicochemical. The settings on record: buffer, read-out: Therm_solubility.

Structures are written as SMILES. In brackets after ≈: the same amount, converted by molar mass.

Regarding `CC(C)C(=O)N1CCC(c2cn(C)c3ncc(NC(=O)c4cccc(C#N)c4)c(C(C)C)c23)CC1`, the logD (as a rule, the decadic logarithm of the distribution of all forms, ionised or not, between an organic phase and buffer at a given pH) in data set [1] was determined as 2.6.
On to `CC(=O)N1CCC(c2cn(C)c3ncc(NC(=O)c4cccc(C#N)c4)c(C)c23)CC1`, for which the logD in data set [1] was determined as 1.6.
In turn, `CC(C)C(=O)N1CCC(c2cn(C)c3ncc(NC(=O)c4cccc(C#N)c4)c(C(F)(F)F)c23)CC1` had a logD in [1] of 3.7. Besides, the Vd in [2] was determined as 1.4 L/kg; in [3], 1.5 L/kg; in [4] it was 0.8 L/kg. Also, the bioavailability (in general, the share of a dose that reaches the circulation, judged against a reference dose that is usually intravenous) stood at 83% in data set [5], 73% in data set [6], 30% in data set [7] and 21% in [8]. Further, the Papp – broadly, a coefficient for how fast a substance crosses the barrier – in data set [9] came out at 13.2 ×10⁻⁶ cm/s. For the same compound, in data set [10], the solubility thermodynamic was determined as 1 µM (≈ 0.498 µg/mL).
In data set [1], `Cc1c(NC(=O)c2cccc(C#N)c2)cnc2c1c(C1CCN(C(=O)C3CCOC3)CC1)cn2C` (centres undefined) showed a logD of 1.6.
Same read-out and setting: for `Cc1c(NC(=O)c2cccc(C#N)c2)cnc2c1c(C1CCN(C(=O)C3CCC3)CC1)cn2C` the value was 2.6.
The same measure, in the same setting: for `Cn1cc(C2CCN(C(=O)C3CCCC3)CC2)c2cc(NC(=O)c3cccc(C#N)c3)cnc21` the value was 3.8.
`Cn1cc(C2CCN(C(=O)C3CCCC3)CC2)c2cc(NC(=O)c3cc(C#N)ccn3)cnc21` showed a logD in [1] of 3.7.
Compound `Cc1c(NC(=O)c2ccc(Cl)c(C#N)c2)cnc2c1c(C1CCN(C(=O)C(C)C)CC1)cn2C` showed a logD in data set [1] of 3.6.
For `Cc1c(NC(=O)c2cccc(C#N)c2)cnc2c1c(C1CCN(C(=O)C3CCCCC3)CC1)cn2C`, the logD in [1] is 3.9.
`Cc1c(NC(=O)c2cccc(C#N)c2)cnc2c1c(C1CCN(C(=O)CC3CC3)CC1)cn2C`: the logD in [1] worked out at 2.4.
As to `CCC(=O)N1CCC(c2cn(C)c3ncc(NC(=O)c4cccc(C#N)c4)c(C)c23)CC1`, the logD in data set [1] was 2.
Still for that read-out and setting: then `Cc1c(NC(=O)c2ccc(F)c(C#N)c2)cnc2c1c(C1CCN(C(=O)C(C)C)CC1)cn2C`, with 2.3.
Consider `Cn1cc(C2CCN(C(=O)C3CCCC3)CC2)c2nc(NC(=O)c3cc(C#N)ccn3)ccc21`, for which the logD in [1] was determined as 4.2.
`Cc1noc(C)c1C(=O)N1CCC(c2cn(C)c3ncc(NC(=O)c4cccc(C#N)c4)c(C)c23)CC1` came in with a logD in data set [1] of 2.
Regarding `Cn1cc(C2CCN(C(=O)C3CCCC3)CC2)c2cc(NC(=O)c3cc(C#N)ccn3)ccc21`, the logD in [1] stood at 4.3.
In data set [1], `Cc1c(NC(=O)c2cccc(C#N)c2)cnc2c1c(C1CCN(C(=O)C3CCCC3)CC1)cn2C` registered a logD of 2.9.
In the case of `COc1ccc(C(=O)Nc2cnc3c(c(C4CCN(C(=O)C(C)C)CC4)cn3C)c2C)cc1C#N`, the logD in data set [1] worked out at 2.4.
In [1], `COc1c(NC(=O)c2cccc(C#N)c2)cnc2c1c(C1CCN(C(=O)C(C)C)CC1)cn2C` came in with a logD of 2.
For the compound `Cc1c(NC(=O)c2cccc(C#N)c2)ccc2c1c(C1CCN(C(=O)C3CCCC3)CC1)cn2C`, in data set [1], the logD was 4.
In data set [1], `Cc1cccc(F)c1C(=O)N1CCC(c2cn(C)c3ncc(NC(=O)c4cccc(C#N)c4)c(C)c23)CC1` showed a logD of 3.1.
Still for that read-out and setting: then `Cc1ccc(C(=O)Nc2cnc3c(c(C4CCN(C(=O)C(C)C)CC4)cn3C)c2C)cc1C#N`, with 2.3; and `Cn1cc(C2CCN(C(=O)C3CCCC3)CC2)c2cc(NC(=O)c3cccc(C#N)c3)ccc21`, with 4.4.
Still for that read-out and setting: then `Cc1c(NC(=O)c2cccc(C#N)c2)cnc2c1c(C1CCN(C(=O)CC(C)C)CC1)cn2C`, with 2.5; and `Cc1c(NC(=O)c2cccc(C#N)c2)cnc2c1c(C1CCN(C(=O)C3CC3)CC1)cn2C`, with 2.3.
Still for that read-out and setting: then `Cc1c(NC(=O)c2cccc(C#N)c2)cnc2c1c(C1CCN(C(=O)C(C)C)CC1)cn2C`, with 2.
